This note sets out measurements from patent publication US20210386738A1, “COMBINATION OF PRMT5 INHIBITORS AND BCL-2 INHIBITORS” (GLAXOSMITHKLINE INTELLECTUAL PROPERTY DEVELOPMENT LIMITED, priority 2018, published 2021).

Experiment [1] concerns lymphoma cell line DB. Nature of the experiment: Serial dilutions: fixed ABT-199 concentration with Compound A titration, six-day cell proliferation. In kind it is cell-based. The protocol:
Serial dilutions were performed for the combination to ascertain the change in gIC50, gIC100 and dEC50 when the inhibitors are used together in a PRMT5 inhibitor cell proliferation. A first compound plate was prepared where PRMT5 inhibitor, Compound A, was prepared with a 20-point, two-fold dilution series of compound A from column 1 to 20. A second compound plate was prepared using the BCL-2 inhibitor ABT-199. ABT-199 was titrated in a 16-point 2-fold dilution series from row A to Q. A third plate was then created by added equal volume of 12 ul (ABT-199) from each well in the second plate into the corresponding well in the first plate. The third plate comprised rows from A to Q, each row comprising a fixed concentration of ABT-199. Columns 1-20 comprised varying concentrations of compound A from the 20-point dilution. Plates were incubated for six days at the conditions described above. Lymphoma cell line DB was treated with the solution in each of the wells. Cell growth was measured using CellTiter-Glo (Promega) and luminescence signal was detected with a BioTek Synergy Neo microplate reader. A plate of untreated cells was read at the time of compound/biologic addition to determine the T0 value representing the starting number of cells. Data were fit with a four-parameter equation to generate a concentration response curve for each row using Assay Client software. A comparison was made across each row in the third plate to determine, when keeping a fixed concentration of ABT-199, what concentration of compound A is needed to reach the gIC50, gIC100 or dEC50 respectively and the fold change compared to treating the same cell with compound A alone.
Tables 4a-c show the results of the above serial dilution experiments wherein ‘fold change’ is the difference between the amount of compound A needed to achieve gIC50, gIC100 or dEC50 respectively, compared to the amount of compound A needed to achieve gIC50, gIC100 or dEC50 respectively when compound A is given as a single agent.

The subject of experiment [2] is lymphoma cell line DOHH-2. Put plainly: Standard 6-day growth-death assay, DOHH-2. The conditions noted are these: single agent or fixed 1:1 combination. It counts as cell-based. The procedure: The majority cell lines were obtained from GSK BioCat group, American Type Culture Collection (ATCC), or the Deutsche Sammlung von Mikroorganismen and Zellbulturen (DSMZ). All cell lines were maintained in growth medium in T75 cm^2 flasks, incubated at 37° C. with 5% CO2 and split every 3 to 4 days. Growth media conditions and cell line information are detailed in Table 1. Cells were counted using the Vi-Cell Analyzer (Beckman Coulter ViCell) to obtain viable cell counts.
Optimal cell seeding density was determined for all cell lines by monitoring proliferation over a range of seeding densities in 384-well format and identifying the seeding density at which cells grew logarithmically throughout six days. 50 uL of cells per well were plated in 384-well plates at the optimal seeding density in preferred supplemented culture media. Three plates were prepared per cell line and incubated overnight at 37° C. in 5% CO2.
In these studies, lymphoma cell lines were treated with PRMT5 inhibitor, compound A and BCL-2 targeted inhibitor, ABT-199 single agent or in combination using a fixed 1:1 ratio of each inhibitor over a 20-point titration. For compound A single and fixed 1:1 ratio combination with ABT-199 cell proliferation assay, cells were treated in duplicate with a 20-point, two-fold dilution series of Compound A, ABT-199 (≥14 μM top dose) single or combo treatment, and ≤0.15% DMSO final concentration. Plates were incubated for six days at the conditions described above. Cell growth was measured using CellTiter-Glo (Promega) and luminescence signal was detected with a BioTek Synergy Neo microplate reader. A plate of untreated cells was read at the time of compound/biologic addition to determine the T0 value representing the starting number of cells. Data were fit with a four-parameter equation to generate a concentration response curve using Assay Client software.
Results were background corrected by subtraction of values from wells containing no cells, expressed as a percentage of the T0 value (value at time=0), and plotted against compound concentration. The T0 value was normalized to 100% and represents the number of cells present at the time of compound addition. The cellular response was determined for each compound using a 4- or 6-parameter curve fit of cell viability against concentration using Assay Client software. Growth IC50 (gIC50) values correspond to the concentration intersecting the mid-point of the growth window (between DMSO and T0 values). Growth IC100 (gIC100) values correspond to the concentration at which 100% growth inhibition is achieved, based on the growth window. The Ymin−T0 value, a measure of net population cell growth or death, is calculated by subtracting the T0 value (100%) from the Ymin value (%) that is determined from the fit of the concentration response curve. Death EC50 (dEC50) values correspond to the concentration at which 50% net cell death is observed.
Individual curves were quality checked for three criteria: outlier data points, cell growth (population doubling ≥1.5), and proper curve fitting. […] Individual curves were QC checked for outlier data points, cell growth (population doubling ≥1.5), and proper curve fitting. Obvious outlier data points were omitted only as needed to ensure proper curve fit.
For fixed ratio screening, combination activity was assessed by the fold change in gIC50 compared to the 2 single agent curves by dividing the compound ratio as necessary. Combinations showing >3-fold and >5-fold change from single agent are described as below: • Fold changes ≥5 are considered to represent strong synergy. • Fold changes between 3.0 and 4.9 are considered to represent weak synergy. • Fold changes <3 are considered to represent no synergy.

The mark [3] stands for this setting: fixed ABT-199 with compound A titration, vs compound A alone.

A value given as a limit tells only on which side of the number the result lay.

For `CC1(C)CCC(CN2CCN(c3ccc(C(=O)NS(=O)(=O)c4ccc(NCC5CCOCC5)c([N+](=O)[O-])c4)c(Oc4cnc5[nH]ccc5c4)c3)CC2)=C(c2ccc(Cl)cc2)C1` [ABT-199, venetoclax, reference compound], the EC50 in experiment [1] (144 h, single agent, six days, read-out: dEC50) was more than 7330 nM; in experiment [2] (Homo sapiens, 144 h, average of n=2, read-out: dEC50), 1820 nM. In addition, the IC50 in experiment [1] (144 h, single agent, six days, read-out: gIC50) came to 6410 nM; in experiment [2] (Homo sapiens, 144 h, average of n=2, read-out: gIC50), 51 nM. Besides, the “concentration of ABT-199 at which ≥3 fold change was achieved in dEC50” value in experiment [1] (fixed ABT-199 with compound A titration) stood at 1833 nM. In addition, in experiment [1] (setting [3]), the “concentration of ABT-199 at which ≥3 fold change was achieved in gIC50” value was 115 nM. In addition, in experiment [1] (setting [3]), the “concentration of ABT-199 at which ≥3 fold change was achieved in gIC100” value is 458 nM. The gIC100 in experiment [1] (single agent, six days) came out at 7.331 µM; in experiment [2] (average of n=2), 2897 nM. Further, in experiment [2] (average of n=2), the Ymin-T0 is listed as −69%.
